Results as given in ChEMBL document CHEMBL5365457, “Selective HDAC3 Inhibitors with Potent In Vivo Antitumor Efficacy against Triple-Negative Breast Cancer” (J Med Chem, 2023).
Active and inactive are the calls of the source. No cut-off for these calls is given here.

Columns and labels:
[1] = Metabolic stability in rat liver microsome assessed as half life preincubated for 5 mins followed by NADPH addition and measured after 60 mins by HPLC analysis; type: ADME; settings: liver microsomes, time 65 min
[2] = Toxicity in BALB/c mouse implanted with mouse 4T1 cells assessed as heart damage at 5 to 15 mg/kg, ip measured after 21 days by H and E staining based assay; type: organism-based; settings: in vivo, 504 h, dose 5-15 mg/kg, time 21 day
[3] = AUMC (0 to infinity) in Wistar rat at 5 mg/kg, ip measured upto 24 hrs by HPLC analysis; type: ADME, organism-based; settings: in vivo
[4] = test system: MDA-MB-231; experiment: Cytotoxicity against human MDA-MB-231 cells assessed as inhibition of cell growth incubated for 72 hrs by MTT assay; type: functional, cell-based; settings: MDA-MB-231, 72 h
[5] = Toxicity in BALB/c mouse implanted with mouse 4T1 cells assessed as liver fibrosis at 5 to 15 mg/kg, ip measured after 21 days; type: organism-based; settings: in vivo, 504 h, dose 5-15 mg/kg, time 21 day
[6] = Toxicity in BALB/c mouse implanted with mouse 4T1 cells assessed as effect on cell shape in liver at 5 to 15 mg/kg, ip measured after 21 days by H and E staining based assay; type: organism-based; settings: in vivo, 504 h, dose 5-15 mg/kg, time 21 day
[7] = test system: 4T1; experiment: Antitumor activity against mouse 4T1 cells implanted in BALB/c mouse assessed as reduction in lung metastasis at 5 to 15 mg/kg, ip measured for 7 days by fluorescence based assay; type: functional, organism-based; settings: dose 5-15 mg/kg, time 7.0 day
[8] = test system: Mus musculus; experiment: Induction of ROS generation in mouse implanted with mouse 4T1 cells at 5 mg/kg, ip administered for 21 days by DCFH-DA staining based microscopic analysis; type: functional, organism-based; settings: time 21.0 day
[9] = Toxicity in BALB/c mouse implanted with mouse 4T1 cells assessed as neutrophilic infiltration in kidney at 5 to 15 mg/kg, ip measured after 21 days; type: organism-based; settings: in vivo, 504 h, dose 5-15 mg/kg, time 21 day
[10] = test system: 4T1; experiment: Induction of apoptosis in mouse 4T1 cells assessed as increase cytochrome c level by Western blot analysis; type: functional, cell-based; settings: dose 1.0 µM
[11] = Selectivity ratio of IC50 for cytotoxicity against human MCF-10A cells assessed as inhibition of cell growth to IC50 for cytotoxicity against […] cells assessed as inhibition of cell growth; type: toxicity, cell-based; settings: MCF-10A cells versus 4T1 cells, read-out: Ratio IC50
[12] = Half life in Wistar rat at 5 mg/kg, ip measured upto 24 hrs by HPLC analysis; type: ADME, organism-based; settings: in vivo
[13] = test system: MDA-MB-453; experiment: Cytotoxicity against human MDA-MB-453 cells assessed as inhibition of cell growth incubated for 72 hrs by MTT assay; type: functional, cell-based; settings: MDA-MB-453, 72 h
[14] = Toxicity in BALB/c mouse implanted with mouse 4T1 cells assessed as effect on cell shape in heart at 5 to 15 mg/kg, ip measured after 21 days by H and E staining based assay; type: organism-based; settings: in vivo, 504 h, dose 5-15 mg/kg, time 21 day
[15] = Selectivity ratio of IC50 for cytotoxicity against human MCF-10A cells assessed as inhibition of cell growth to IC50 for cytotoxicity against human MCF7 cells assessed as inhibition of cell growth; type: toxicity, cell-based; settings: MCF-10A cells versus MCF7 cells, read-out: Ratio IC50
[16] = Cytotoxicity against human HCEC cells assessed as inhibition of cell growth incubated for 72 hrs by MTT assay; type: toxicity, cell-based; settings: human, HCEC cells
[17] = test system: 4T1; experiment: Antitumor activity against mouse 4T1 cells implanted in BALB/c mouse assessed as tumor growth inhibition at 5 mg/kg, ip measured on day 7; type: functional; settings: 4T1, 168 h, time 7 day, read-out: TGI
[18] = Selectivity ratio of IC50 for cytotoxicity against human HEK293 cells assessed as inhibition of cell growth to IC50 for cytotoxicity against human MDA-MB-453 cells assessed as inhibition of cell growth; type: toxicity, cell-based; settings: HEK293 cells versus MDA-MB-453 cells, read-out: Ratio IC50
[19] = Tmax in Wistar rat at 5 mg/kg, ip measured upto 24 hrs by HPLC analysis; type: ADME, organism-based; settings: in vivo
[20] = test system: 4T1; experiment: Antitumor activity against mouse 4T1 cells implanted in BALB/c mouse assessed as tumor growth inhibition at 15 mg/kg, ip measured on day 14; type: functional; settings: 4T1, 336 h, time 14 day, read-out: TGI
[21] = test system: 4T1; experiment: Antitumor activity against mouse 4T1 cells implanted in BALB/c mouse assessed as downregulation of Bcl-2 level in tumor at 5 to 15 mg/kg, ip by Western blot analysis; type: functional, organism-based; settings: dose 5-15 mg/kg
[22] = Toxicity in BALB/c mouse implanted with mouse 4T1 cells assessed as effect on cell size in spleen at 5 to 15 mg/kg, ip measured after 21 days by H and E staining based assay; type: organism-based; settings: in vivo, 504 h, dose 5-15 mg/kg, time 21 day
[23] = Toxicity against BALB/c mouse implanted with mouse 4T1 cells assessed as body weight loss at 5 to 15 mg/kg,ip administered 5 times a week for 21 days; type: organism-based; settings: in vivo, 504 h, dose 5-15 mg/kg, time 21 day
[24] = test system: 4T1; experiment: Cell cycle arrest in mouse 4T1 cells assessed as accumulation of cells at G2/M phase at 2.75 uM incubated for 72 hrs by flow cytometry; type: functional
[25] = test system: MDA-MB-231; experiment: Cytotoxicity against wild type human MDA-MB-231 cells assessed as reduction in cell viability incubated for 72 hrs in presence of oxaliplatin by MTT assay; type: functional, cell-based; settings: MDA-MB-231, 72 h
[26] = Toxicity in BALB/c mouse implanted with mouse 4T1 cells assessed as effect on cell shape in spleen at 5 to 15 mg/kg, ip measured after 21 days by H and E staining based assay; type: organism-based; settings: in vivo, 504 h, dose 5-15 mg/kg, time 21 day
[27] = Toxicity in BALB/c mouse implanted with mouse 4T1 cells assessed as effect on cell size in kidney at 5 to 15 mg/kg, ip measured after 21 days by H and E staining based assay; type: organism-based; settings: in vivo, 504 h, dose 5-15 mg/kg, time 21 day
[28] = test system: 4T1; experiment: Antitumor activity against mouse 4T1 cells implanted in BALB/c mouse assessed as tumor growth inhibition at 15 mg/kg, ip measured on day 21; type: functional; settings: 4T1, 504 h, time 21 day, read-out: TGI
[29] = test system: 4T1; experiment: Cell cycle arrest in mouse 4T1 cells assessed as accumulation of cells at G2/M phase at 110 nM incubated for 72 hrs by flow cytometry; type: functional
[30] = Selectivity ratio of IC50 for cytotoxicity against human HCEC cells assessed as inhibition of cell growth to IC50 for cytotoxicity against human MDA-MB-231 cells assessed as inhibition of cell growth; type: toxicity, cell-based; settings: HCEC cells versus MDA-MB-231 cells, read-out: Ratio IC50
[31] = Toxicity in BALB/c mouse implanted with mouse 4T1 cells assessed as effect on cell size in heart at 5 to 15 mg/kg, ip measured after 21 days by H and E staining based assay; type: organism-based; settings: in vivo, 504 h, dose 5-15 mg/kg, time 21 day
[32] = test system: 4T1; experiment: In-vivo inhibition of HDAC3 in ip dosed BALB/c mouse implanted with mouse 4T1 cells assessed as hyperacetylation of H4K12 level by Western blot analysis; type: functional, organism-based; settings: dose 5-15 mg/kg
[33] = test system: 4T1; experiment: Antitumor activity against mouse 4T1 cells implanted in BALB/c mouse assessed as increase in number of lung nodules at 15 mg/kg, ip measured for 7 days by fluorescence based assay; type: functional, organism-based; settings: time 7.0 day
[34] = Cytotoxicity against Oxaliplatin-resistant human MDA-MB-231 cell assessed as reduction in cell viability incubated for 72 hrs by MTT assay; type: functional, cell-based; settings: Oxaliplatin-resistant MDA-MB-231 cell
[35] = test system: 4T1; experiment: Induction of apoptosis in mouse 4T1 cells assessed as increase in cleaved caspase-3 level by Western blot analysis; type: functional, cell-based; settings: dose 1.0 µM

- half-life [1]: 38.3 min
- AUMC [3]: 29.08 ug/ml.hr^2
- half-life [12]: 431 min
- Tmax [19]: 2 h
SMILES: CCCNNC(=O)c1cnc(NCc2ccc(OC)cc2)cn1
- Activity [2]: Non-Toxic
- IC50 [4]: 740 nM
- Activity [5]: Non-Toxic
- Activity [6]: Non-Toxic
- Activity [7]: Active
- Activity [8]: Active
- Activity [9]: Non-Toxic
- Activity [10]: Dose-Dependent Effect
- selectivity ratio [11]: 385
- IC50 [13]: 1720 nM
- Activity [14]: Non-Toxic
- selectivity ratio [15]: 385
- IC50 at 72 h [16]: 212 µM
- inhibition in vivo at 5 mg/kg [17]: 76.2%
- selectivity ratio [18]: 286
- inhibition in vivo at 15 mg/kg [20]: 97.3%
- Activity [21]: Active
- Activity [22]: Non-Toxic
- Activity [23]: Non-Toxic
- Activity [24]: 63.4%
- IC50 [25]: 403 nM
- Activity [26]: Non-Toxic
- Activity [27]: Non-Toxic
- inhibition in vivo at 15 mg/kg [28]: 97.9%
- Activity [29]: 38.8%
- selectivity ratio [30]: 286
- Activity [31]: Non-Toxic
- inhibition [32]: Dose-Dependent Effect
- Activity [33]: Active
- IC50 [34]: 754 nM
- Activity [35]: Dose-Dependent Effect
